These results are taken from US20110283604A1, “BIODEGRADATION OF RENEWABLE HYDROCARBON FUEL BLENDS” (BUTAMAX(TM) ADVANCED BIOFUELS LLC, priority 2010, published 2011).

Series [1] deals with soil-groundwater slurries. Kind of series: Aerobic microcosm biodegradation of BTEX, isobutanol and ethanol. The protocol:
Soil and groundwater for laboratory microcosm testing were collected from within Site 60 at Vandenberg Air Force Base, CA. The site has a history of gasoline contamination, but has undergone an extensive cleanup program. Collected groundwater was containerized in sterile stainless steel soda kegs (18.5 L) under nitrogen headspace. […] The core samples in acetate sleeves were capped and sealed in the field to minimize exposure to air, shipped overnight on ice to the laboratory, and stored at 4° C.
Soil was removed from the acetate sleeves in an anaerobic chamber (Coy Laboratory Products, Inc., Grass Lake, Mich.) and the first 10 cm of the core ends that may have been exposed to oxygen were discarded. Collected soil consisted of silty sand with some gravel and larger stones. The soil was passed through a 0.95 cm sieve, homogenized, and then stored in amber glass jars with Teflon®-lined caps at 4° C. until microcosm setup was complete. (NA=Not Analyzed; * SVOC (semi volatile organic compound) detections include 0.008 mg L^−1 phenol and 0.003 mg L^−1 bis(2-ethylhexyl) phthalate; ** standard units).
Final transformation products were not determined. For comparison, one treatment was prepared using ethanol instead of isobutanol. […] Controls were amended with mercuric chloride and formaldehyde. BTEX and alcohol concentrations were selected to represent (approximately) potential groundwater concentrations that would be observed within a source area and in the near downgradient plume. The greater ethanol concentrations relative to the isobutanol concentrations used in this study were intended to reflect effective solubilities of isobutanol and ethanol in groundwater. […] The SET 1 treatments were prepared within 4 days of sample collection whereas SET 2 treatments were prepared after approximately 2 months of soil and groundwater storage.
Microcosms were prepared by placing 40 g of site soil into each of 54 glass serum bottles (approximate volume 160 mL each). BTEX and alcohol (isobutanol or ethanol) were added to the treatment bottles to attain the target concentrations shown in Tables 2A and B. Bottles were filled with groundwater so as to leave 10 mL of headspace. Controls were amended with mercuric chloride (700 mg/L in bottles) to inhibit microbial activity. Controls were subsequently amended with formaldehyde (1% v/v in bottles) after 4 days to limit microbial activity. Treatments were prepared with a minimum of 3 and up to 8 replicates each.
The prepared microcosms were incubated at 15° C. on a rotary shaker operating at 100 rpm. Headspace in each of the bottles was monitored for BTEX and oxygen. Aqueous BTEX concentrations were calculated by applying Henry's Law. Samples of the aqueous phase were analyzed for isobutanol and ethanol, as well as potential isobutanol degradation products (iso-butylaldehyde and iso-butyric acid). The headspace of each bottle was periodically flushed with oxygen gas to maintain aerobic conditions in the bottles. The headspace of each control bottle also was flushed with oxygen to evaluate potential losses of BTEX due to the flushing process.
Headspace gases were analyzed for BTEX by using a Varian CP-3900 gas chromatograph equipped with an FID and a Restek QSPLOT column (30 m length, 0.32 mm diameter) with an injector temperature of 260° C. and a detector temperature of 290° C. Headspace oxygen was analyzed by using a Varian CP-3800 gas chromatograph equipped with a Pulsed Discharge Helium Ionization Detector (PDHID) and both a CP-Molsiene 5A column and a CP-ParaBond Q column (both 10 m length, 0.32 mm diameter), an injector temperature of 210° C., and a detector temperature of 240° C. […] Aqueous alcohol concentrations (as well as iso-butylaldehyde and iso-butyric acid) were measured by first collecting a 130 μL subsample preserved with mercuric chloride.

Series [2] is described as follows: Water tolerance and phase separation tests on isobutanol-ethanol-gasoline blends. Format: physicochemical. The following applies: E10 gasoline. The protocol:
Scoping water tolerance and phase separation tests were conducted on isobutanol-ethanol-gasoline blends at 65° F. […] Concentrations in both the hydrocarbon and aqueous phase were determined by GC.

The mark [3] stands for this setting: Treatment 1 (Low BTEX), aerobic, 15° C.
Where [4] appears, read: Treatment 2 (High BTEX), aerobic.
Setting [5] is: Treatment 3 (Low BTEX + IBA 68 μM), aerobic.
[6] abbreviates: Treatment 4 (High BTEX + IBA 3,400 μM), SET 1, aerobic.
Setting [7] is: Treatment 5 (High BTEX + IBA 3,400 μM), SET 2, aerobic.
Setting [8] is: Treatment 6 (High BTEX + Ethanol 11,000 μM), aerobic.
The mark [9] stands for this setting: higher concentration treatments, aerobic (isobutanol: data of Treatments 4 and 5; ethanol treatment).

In the case of `c1ccccc1` [Benzene, benzene], the Lag is listed as 0 days in series [1] (setting [3]); 6 days in series [1] (setting [4]); 0 days in series [1] (setting [5]); 1 days in series [1] (setting [6]); 1 days in series [1] (setting [7]); 1 days in series [1] (setting [8]).
On to `CCc1ccccc1` [Ethylbenzene, ethylbenzene], for which the Lag in series [1] (setting [3]) turned out to be 2 days; in series [1] (setting [4]) it was 5 days; in series [1] (setting [5]), 1 days; in series [1] (setting [6]), 0 days; in series [1] (setting [7]), 1 days; in series [1] (setting [8]), 1 days.
On to `Cc1ccccc1` [Toluene, toluene], for which the Lag was 0 days in series [1] (setting [3]); 5 days in series [1] (setting [4]); 0 days in series [1] (setting [5]); 5 days in series [1] (setting [6]); 1 days in series [1] (setting [7]); 1 days in series [1] (setting [8]).
As to `CCO` [ethanol, reference compound], in series [1] (setting [9]), the “observed first-order biodegradation rate constant” value was determined as 0.074 ± 0.0023 day⁻¹.
As to `CC(C)CO` [isobutanol], the “effect of increased levels on aqueous phase volume during phase separation” value in series [2] (1.3% and 2.6% water, FIG. 11) was “reduced aqueous phase volume”. The “effect on amount of ethanol extracted into the aqueous phase” value in series [2] (FIG. 12) is on record as “acts as a co-solvent for ethanol”. In addition, in series [1] (Treatment 3 vs higher concentration treatments, aerobic), the “rate constant in lower concentration treatment relative to isobutanol or ethanol in higher concentration treatments” value is reported as “approximately 3.5 times”. Besides, the “observed first-order biodegradation rate constant” value came to 0.081 ± 0.0044 day⁻¹ in series [1] (setting [9]) and 0.28 ± 0.054 day⁻¹ in series [1] (lower concentration treatment (Treatment 3), aerobic).
Consider total xylenes, for which the Lag in series [1] (setting [3]) came to 2 days; in series [1] (setting [4]), 0 days; in series [1] (setting [5]) it was 1 days; in series [1] (setting [6]), 0 days; in series [1] (setting [7]), 1 days; in series [1] (setting [8]), 1 days.
